These results are taken from paper PMC3760131 (Acta Crystallographica Section D: Biological Crystallography, 2013).

One series addresses T1, XIAP BIR2 (Homo sapiens, UniProt P98170).
T1 construct: 6×histidine-tagged BIR2 (amino acids 124–240) or BIR3 (amino acids 241–356) domain of the XIAP protein
Put plainly: BIR2 TR-FRET assay (displacement of AVPI-derived peptide). It counts as binding. The protocol:
(§1) Time-resolved fluorescence resonance energy transfer (TR-FRET) signals were measured 1 h later at room temperature. Compound potency was assessed at ten serially diluted concentrations. The percentage of inhibition at each concentration was determined to generate an IC50 value for each compound.

The target of another series is T2, XIAP BIR3 (Homo sapiens, UniProt P98170).
T2 construct: 6×histidine-tagged BIR2 (amino acids 124–240) or BIR3 (amino acids 241–356) domain of the XIAP protein
As to the kind of experiment: BIR3 TR-FRET assay (displacement of AVPI-derived peptide). It counts as binding. As to the method: as §1
For orientation: Time-resolved FRET reads energy transfer from a long-lived donor to a nearby acceptor.

For series [1], the target named is 6×histidine-tagged BIR2 (amino acids 124–240) domain of the XIAP protein (UniProt P98170). Put plainly: AlphaScreen or HTRF; TR-FRET competition: 10 nM 6xHis BIR2 or BIR3 domain with 20 nM …-(epsilon-biotin)-OH; europium streptavidin (1.5 nM) and allophycocyanin anti-histidine antibody (15 nM); 50 mM Tris-HCl pH 7.5, 100 mM NaCl, 1 mM DTT, 0.1 mg/ml BSA; 45 min at 310 K, read 1 h later at room temperature; ten concentrations; Ki from IC50 by Cheng-Prusoff.

Series [2] concerns the molecule itself. Put plainly: crystal structure; apo BIR2 crystals, sitting drop, 1.7-1.9 M ammonium sulfate, 125 mM bis-tris propane pH 7.0, room temperature; two molecules (A and B).
[3] abbreviates: FRET-based displacement of AVPI-derived peptide from 6xHis BIR2 (124-240), Ki from IC50 by Cheng-Prusoff, read-out: BIR2 K i.
Setting [4] is: FRET-based displacement of AVPI-derived peptide from 6xHis BIR3 (241-356), Ki from IC50 by Cheng-Prusoff, read-out: BIR3 K i.

Where two headings read alike, the source gives them in different places. Where a SMILES comes first, the peptide text is derived from it. Bounds are passed on as bounds.

T1 sequence (P98170 124-240): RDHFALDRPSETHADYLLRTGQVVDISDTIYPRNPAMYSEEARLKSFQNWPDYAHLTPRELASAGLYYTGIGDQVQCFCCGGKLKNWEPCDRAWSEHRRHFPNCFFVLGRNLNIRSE
T2 sequence (P98170 241-356): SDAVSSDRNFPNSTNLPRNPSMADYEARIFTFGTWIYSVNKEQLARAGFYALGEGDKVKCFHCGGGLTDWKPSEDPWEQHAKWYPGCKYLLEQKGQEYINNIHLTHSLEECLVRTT
6×histidine-tagged BIR2 (amino acids 124–240) domain of the XIAP protein, sequence (P98170 124-240): as the sequence (P98170 124-240) above

As for `CC[C@H](C)[C@H](NC(=O)[C@H](C)N)C(=O)N[C@@H](C)C(=O)N[C@H](C(=O)O)C(C)C` [AIAV] (H-AIAV-OH), the Ki at XIAP BIR2 came out at 1.87 µM; at XIAP BIR3, 28.2 µM. Regarding `CC[C@H](C)[C@H](NC(=O)[C@H](CCCNC(=N)N)NC(=O)[C@H](CCSC)NC(=O)[C@H](C)N)C(=O)O` [AMRI] (H-AMRI-OH), the Ki was 3.52 µM on XIAP BIR2 (setting [3]) and 5.2 µM on XIAP BIR3 (setting [4]).

On to `CSCC[C@H](NC(=O)[C@H](C)N)C(=O)N[C@@H](CCCNC(=N)N)C(=O)N[C@H](C(=O)O)C(C)C` [AMRV] (H-AMRV-OH), for which the Ki is 2.41 µM at XIAP BIR2 (setting [3]) and 32.9 µM at XIAP BIR3 (setting [4]). `CC(C)[C@H](NC(=O)[C@@H](NC(=O)[C@@H](NC(=O)[C@H](C)N)C(C)C)C(C)C)C(=O)O` [AVVV] (H-AVVV-OH): the Ki at XIAP BIR2 (setting [3]) turned out to be 2.54 µM. With `CC[C@H](C)[C@H](NC(=O)[C@@H]1CCCN1C(=O)[C@H](CCSC)NC(=O)[C@@H](N)CO)C(=O)O` [SMPI] (H-SMPI-OH), the Ki is 34 µM on XIAP BIR2 (setting [3]) and 12.5 µM at XIAP BIR3 (setting [4]).

On to `CC(C)[C@H](NC(=O)[C@H](C)NC(=O)[C@@H](NC(=O)[C@H](C)N)C(C)C)C(=O)O` [AVAV] (H-AVAV-OH), for which the Ki at XIAP BIR2 (setting [3]) was 1.87 µM; at XIAP BIR3 (setting [4]), 26.1 µM. The corresponding values for `CC(C)[C@H](NC(=O)[C@H](C)NC(=O)[C@@H](NC(=O)[C@H](C)N)[C@@H](C)O)C(=O)O` [ATAV] (H-ATAV-OH) are 2.17 µM and 32.3 µM. For the molecule `C[C@H](N)C(=O)N[C@H](C(=O)N[C@@H](C)C(=O)N[C@@H](C)C(=O)O)[C@@H](C)O` [ATAA] (H-ATAA-OH), the Ki at XIAP BIR2 (setting [3]) was 1.7 µM; on XIAP BIR3 (setting [4]), greater than 47 µM. On XIAP BIR3 (TR-FRET assay), the “activity against BIR3 (in words)” value was “inactive”.

With `CC[C@H](C)[C@H](NC(=O)[C@@H]1CCCN1C(=O)[C@@H](NC(=O)[C@H](C)N)[C@@H](C)CC)C(=O)O` [AIPI] (H-AIPI-OH), the Ki turned out to be 3.11 µM on XIAP BIR2 (setting [3]) and 0.08 µM on XIAP BIR3 (setting [4]). As to `C[C@H](N)C(=O)N[C@@H](CCCNC(=N)N)C(=O)N1CCC[C@H]1C(=O)N[C@@H](CCCNC(=N)N)C(=O)O` [ARPR] (H-ARPR-OH), at XIAP BIR2 (setting [3]), the Ki was greater than 53 µM. In the case of `CSCC[C@H](NC(=O)[C@@H](N)CO)C(=O)N[C@@H](CCCNC(=N)N)C(=O)N[C@H](C(=O)O)C(C)C` [SMRV] (H-SMRV-OH), the Ki is 12.3 µM at XIAP BIR2 (setting [3]) and greater than 47 µM at XIAP BIR3 (setting [4]). As to SMRV, the Ki in series [1] came out at 12.2 µM.

B1: XIAP BIR2(152–236;C202A,C213G) (domain or fragment, human)
chain: GTIYPRNPAMYSEEARLKSFQNWPDYAHLTPRELASAGLYYTGIGDQVQCFACGGKLKNWEPGDRAWSEHRRHFPNCFFVLGRNLN
notes: printed as hBIR2; Two molecules (A and B) in the crystal; also called hBIR2(152–236;C202A,C213G); BIR2 domain of XIAP; source: E. coli Rosetta2(DE3)pLysS, purified (Ni-NTA, TEV cleavage, Superdex 75); not shown: His6, N-terminal, cleaved
Regarding B1, in series [2], the binding result is “binds”.
